Laboratory results from Sander's compilation of Henry's law constants (doi:10.1021/es00156a005).

Assay: Henry solubility constant Hcp at 293 K (mol/(m3 Pa))
Details: reference: Murphy et al. (1987)

Structure (SMILES) | Henry solubility constant Hcp at 293 K
Clc1ccc(-c2c(Cl)c(Cl)cc(Cl)c2Cl)c(Cl)c1Cl [2,2',3,3',4,5',6'-heptachlorobiphenyl] | 0.3
Clc1cc(Cl)c(Cl)c(-c2ccc(Cl)c(Cl)c2Cl)c1 [2,2',3,3',4,5'-hexachlorobiphenyl] | 0.092
Clc1cc(-c2c(Cl)ccc(Cl)c2Cl)c(Cl)c(Cl)c1Cl [2,2',3,3',4,5,6'-heptachlorobiphenyl] | 0.2
Clc1cc(Cl)c(-c2c(Cl)ccc(Cl)c2Cl)c(Cl)c1Cl [2,2',3,3',4,6,6'-heptachlorobiphenyl] | 0.11
Clc1cccc(-c2c(Cl)cc(Cl)c(Cl)c2Cl)c1Cl [2,2',3,3',4,6-hexachlorobiphenyl] | 0.15
Clc1cccc(-c2ccc(Cl)c(Cl)c2Cl)c1Cl [2,2',3,3',4-pentachlorobiphenyl] | 0.084
Clc1cc(Cl)c(Cl)c(-c2c(Cl)ccc(Cl)c2Cl)c1 [2,2',3,3',5,6'-hexachlorobiphenyl] | 0.07
Clc1cc(Cl)c(Cl)c(-c2cccc(Cl)c2Cl)c1 [2,2',3,3',5-pentachlorobiphenyl] | 0.06
Clc1ccc(Cl)c(-c2c(Cl)ccc(Cl)c2Cl)c1Cl [2,2',3,3',6,6'-hexachlorobiphenyl] | 0.044
Clc1cccc(-c2c(Cl)ccc(Cl)c2Cl)c1Cl [2,2',3,3',6-pentachlorobiphenyl] | 0.057
Clc1cccc(-c2cccc(Cl)c2Cl)c1Cl [2,2',3,3'-tetrachlorobiphenyl] | 0.061
Clc1cc(Cl)c(-c2c(Cl)ccc(Cl)c2Cl)cc1Cl [2,2',3,4',5',6-hexachlorobiphenyl] | 0.067
Clc1cc(Cl)c(-c2cccc(Cl)c2Cl)cc1Cl [2,2',3,4',5'-pentachlorobiphenyl] | 0.066
Clc1cc(Cl)c(-c2c(Cl)c(Cl)cc(Cl)c2Cl)cc1Cl [2,2',3,4',5,5',6-heptachlorobiphenyl] | 0.12
Clc1cc(Cl)c(Cl)c(-c2cc(Cl)c(Cl)cc2Cl)c1 [2,2',3,4',5,5'-hexachlorobiphenyl] | 0.11
Clc1ccc(-c2c(Cl)ccc(Cl)c2Cl)c(Cl)c1 [2,2',3,4',6-pentachlorobiphenyl] | 0.036
Clc1ccc(-c2cccc(Cl)c2Cl)c(Cl)c1 [2,2',3,4'-tetrachlorobiphenyl] | 0.05
Clc1cc(Cl)c(-c2c(Cl)cc(Cl)c(Cl)c2Cl)cc1Cl [2,2',3,4,4',5',6-heptachlorobiphenyl] | 0.15
Clc1cc(Cl)c(-c2ccc(Cl)c(Cl)c2Cl)cc1Cl [2,2',3,4,4',5'-hexachlorobiphenyl] | 0.13
Clc1ccc(-c2cc(Cl)c(Cl)c(Cl)c2Cl)c(Cl)c1 [2,2',3,4,4',5-hexachlorobiphenyl] | 0.15
Clc1ccc(-c2ccc(Cl)c(Cl)c2Cl)c(Cl)c1 [2,2',3,4,4'-pentachlorobiphenyl] | 0.06

Structure (SMILES) | Henry solubility constant Hcp at 293 K
Clc1ccc(Cl)c(-c2c(Cl)cc(Cl)c(Cl)c2Cl)c1 [2,2',3,4,5',6-hexachlorobiphenyl] | 0.07
Clc1ccc(Cl)c(-c2cc(Cl)c(Cl)c(Cl)c2Cl)c1 [2,2',3,4,5,5'-hexachlorobiphenyl] | 0.1
Clc1ccccc1-c1ccc(Cl)c(Cl)c1Cl [2,2',3,4-tetrachlorobiphenyl] | 0.049
Clc1ccc(Cl)c(-c2c(Cl)ccc(Cl)c2Cl)c1 [2,2',3,5',6-pentachlorobiphenyl] | 0.05
Clc1ccc(Cl)c(-c2cccc(Cl)c2Cl)c1 [2,2',3,5'-tetrachlorobiphenyl] | 0.052
Clc1cccc(-c2c(Cl)cccc2Cl)c1Cl [2,2',3,6'-tetrachlorobiphenyl] | 0.038
Clc1ccccc1-c1cccc(Cl)c1Cl [2,2',3-trichlorobiphenyl] | 0.041
Clc1cc(Cl)c(-c2cc(Cl)c(Cl)cc2Cl)cc1Cl [2,2',4,4',5,5'-hexachlorobiphenyl] | 0.1
Clc1ccc(-c2cc(Cl)c(Cl)cc2Cl)c(Cl)c1 [2,2',4,4',5-pentachlorobiphenyl] | 0.046
Clc1ccc(-c2cc(Cl)ccc2Cl)c(Cl)c1 [2,2',4,5'-tetrachlorobiphenyl] | 0.036
Clc1ccc(Cl)c(-c2cc(Cl)c(Cl)cc2Cl)c1 [2,2',4,5,5'-pentachlorobiphenyl] | 0.055
Clc1cc(Cl)c(-c2ccccc2Cl)cc1Cl [2,2',4,5-tetrachlorobiphenyl] | 0.039
Clc1ccc(-c2ccccc2Cl)c(Cl)c1 [2,2',4-trichlorobiphenyl] | 0.03
Clc1ccc(Cl)c(-c2cc(Cl)ccc2Cl)c1 [2,2',5,5'-tetrachlorobiphenyl] | 0.041
Clc1ccc(Cl)c(-c2ccccc2Cl)c1 [2,2',5-trichlorobiphenyl] | 0.033
Clc1ccccc1-c1c(Cl)cccc1Cl [2,2',6-trichlorobiphenyl] | 0.033
Clc1ccccc1-c1ccccc1Cl [2,2'-dichlorobiphenyl] | 0.033
Clc1ccccc1-c1cc(Cl)c(Cl)c(Cl)c1 [2,3',4',5'-tetrachlorobiphenyl] | 0.077
Clc1ccc(Cl)c(-c2cc(Cl)c(Cl)c(Cl)c2)c1 [2,3',4',5,5'-pentachlorobiphenyl] | 0.19
Clc1ccc(Cl)c(-c2ccc(Cl)c(Cl)c2)c1 [2,3',4',5-tetrachlorobiphenyl] | 0.052
Clc1ccc(-c2ccccc2Cl)cc1Cl [2,3',4'-trichlorobiphenyl] | 0.044

Structure (SMILES) | Henry solubility constant Hcp at 293 K
Clc1ccc(-c2cc(Cl)c(Cl)cc2Cl)cc1Cl [2,3',4,4',5-pentachlorobiphenyl] | 0.12
Clc1ccc(-c2ccc(Cl)c(Cl)c2)c(Cl)c1 [2,3',4,4'-tetrachlorobiphenyl] | 0.049
Clc1cccc(-c2ccc(Cl)cc2Cl)c1 [2,3',4-trichlorobiphenyl] | 0.024
Clc1cccc(-c2cc(Cl)ccc2Cl)c1 [2,3',5-trichlorobiphenyl] | 0.029
Clc1cccc(-c2c(Cl)cccc2Cl)c1 [2,3',6-trichlorobiphenyl] | 0.035
Clc1cccc(-c2ccccc2Cl)c1 [2,3'-dichlorobiphenyl] | 0.032
Clc1cc(-c2cccc(Cl)c2Cl)cc(Cl)c1Cl [2,3,3',4',5'-pentachlorobiphenyl] | 0.16
Clc1cc(Cl)c(Cl)c(-c2ccc(Cl)c(Cl)c2)c1 [2,3,3',4',5-pentachlorobiphenyl] | 0.17
Clc1ccc(-c2c(Cl)ccc(Cl)c2Cl)cc1Cl [2,3,3',4',6-pentachlorobiphenyl] | 0.093
Clc1ccc(-c2cccc(Cl)c2Cl)cc1Cl [2,3,3',4'-tetrachlorobiphenyl] | 0.061
Clc1ccc(-c2c(Cl)cc(Cl)c(Cl)c2Cl)cc1Cl [2,3,3',4,4',6-hexachlorobiphenyl] | 0.23
Clc1ccc(-c2cc(Cl)cc(Cl)c2Cl)cc1 [2,3,4',5-tetrachlorobiphenyl] | 0.034
Clc1ccc(-c2c(Cl)ccc(Cl)c2Cl)cc1 [2,3,4',6-tetrachlorobiphenyl] | 0.058
Clc1ccc(-c2ccc(Cl)c(Cl)c2Cl)cc1 [2,3,4,4'-tetrachlorobiphenyl] | 0.061
Clc1ccc(Cl)c(-c2ccccc2)c1Cl [2,3,6-trichlorobiphenyl] | 0.031
Clc1ccc(-c2cc(Cl)ccc2Cl)cc1 [2,4',5-trichlorobiphenyl] | 0.037
Clc1ccc(-c2ccccc2Cl)cc1 [2,4'-dichlorobiphenyl] | 0.035
Clc1ccc(-c2ccccc2)c(Cl)c1 [2,4-dichlorobiphenyl] | 0.027
Clc1ccc(-c2ccc(Cl)c(Cl)c2)cc1 [3,4,4'-trichlorobiphenyl] | 0.065
